Experimental data published in ChEMBL document CHEMBL5120930, “Discovery of Benzylpiperazine Derivatives as CNS-Penetrant and Selective Histone Deacetylase 6 Inhibitors” (ACS Med Chem Lett, 2022).
The source made the active and inactive calls. The calls are words filed in the database; no cut-off is given here.

Tests used:
[1] = molecular target: T1, Protein deacetylase HDAC6 (Mus musculus, UniProt Q9Z2V5); assay: Inhibition of mouse HDAC6 expressed in human HEK-293T cells using fluorescent peptide Ac-KGLGK(Ac)-MCA as substrate preincubated for 10 mins followed by substrate addition and measured after 1 hr by fluorogenic assay; assay type: cell-based
T1 sequence (Q9Z2V5 whole entry): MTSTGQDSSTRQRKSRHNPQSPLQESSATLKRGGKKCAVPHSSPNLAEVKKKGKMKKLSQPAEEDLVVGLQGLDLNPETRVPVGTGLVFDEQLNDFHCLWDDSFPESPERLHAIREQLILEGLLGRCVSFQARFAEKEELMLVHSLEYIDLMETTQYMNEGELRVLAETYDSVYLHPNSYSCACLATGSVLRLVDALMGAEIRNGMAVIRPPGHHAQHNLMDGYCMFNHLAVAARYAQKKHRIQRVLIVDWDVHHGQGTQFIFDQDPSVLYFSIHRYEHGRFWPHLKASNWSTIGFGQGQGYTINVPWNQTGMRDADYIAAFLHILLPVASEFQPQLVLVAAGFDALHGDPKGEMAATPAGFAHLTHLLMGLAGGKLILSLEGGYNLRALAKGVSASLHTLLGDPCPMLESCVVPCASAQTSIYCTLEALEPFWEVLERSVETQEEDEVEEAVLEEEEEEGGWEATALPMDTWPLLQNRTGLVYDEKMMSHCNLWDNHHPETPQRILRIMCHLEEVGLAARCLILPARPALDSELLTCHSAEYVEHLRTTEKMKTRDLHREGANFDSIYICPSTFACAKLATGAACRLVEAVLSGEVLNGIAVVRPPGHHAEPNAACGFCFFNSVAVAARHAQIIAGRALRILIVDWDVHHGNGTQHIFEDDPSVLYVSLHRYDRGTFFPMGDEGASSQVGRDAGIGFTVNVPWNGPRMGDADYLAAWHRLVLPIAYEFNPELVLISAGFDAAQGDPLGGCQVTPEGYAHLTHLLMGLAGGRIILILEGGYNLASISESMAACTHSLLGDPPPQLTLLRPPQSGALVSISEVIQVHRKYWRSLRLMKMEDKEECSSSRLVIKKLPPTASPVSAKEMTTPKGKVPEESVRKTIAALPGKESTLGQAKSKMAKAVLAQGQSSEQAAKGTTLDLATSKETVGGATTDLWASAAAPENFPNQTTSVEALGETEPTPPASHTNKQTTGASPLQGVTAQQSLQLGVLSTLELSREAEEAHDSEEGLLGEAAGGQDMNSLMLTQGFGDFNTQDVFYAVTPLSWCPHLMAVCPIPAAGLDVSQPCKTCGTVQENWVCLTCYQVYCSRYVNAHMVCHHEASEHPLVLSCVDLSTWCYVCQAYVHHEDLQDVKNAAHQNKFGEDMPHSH

Histone deacetylase 1 = Histone deacetylase 1 (Homo sapiens, UniProt Q13547); assay: Inhibition of human HDAC1 expressed in human HEK-293T cells using fluorescent peptide RHKKAc as substrate preincubated for 10 mins followed by substrate addition and measured after 1 hr by fluorogenic assay
Histone deacetylase 1, sequence (Q13547 whole entry): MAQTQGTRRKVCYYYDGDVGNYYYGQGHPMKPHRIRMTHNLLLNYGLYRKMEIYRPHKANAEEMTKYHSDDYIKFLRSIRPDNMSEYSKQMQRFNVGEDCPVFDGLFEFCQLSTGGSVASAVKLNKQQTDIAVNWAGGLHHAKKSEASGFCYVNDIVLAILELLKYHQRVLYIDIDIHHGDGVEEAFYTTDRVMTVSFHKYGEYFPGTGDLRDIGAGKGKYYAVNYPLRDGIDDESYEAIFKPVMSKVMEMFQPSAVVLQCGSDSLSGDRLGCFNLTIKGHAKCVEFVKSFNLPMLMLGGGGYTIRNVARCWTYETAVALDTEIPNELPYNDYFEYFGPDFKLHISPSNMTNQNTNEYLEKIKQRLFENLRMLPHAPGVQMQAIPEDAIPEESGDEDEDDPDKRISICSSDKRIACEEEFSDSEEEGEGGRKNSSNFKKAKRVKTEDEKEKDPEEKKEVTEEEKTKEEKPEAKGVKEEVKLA

Histone deacetylase 4 = Histone deacetylase 4 (Homo sapiens, UniProt P56524); assay: Inhibition of human HDAC4 using fluorescent peptide Boc-Lys(trifluoroacetyl)-AMC as substrate preincubated for 10 mins followed by substrate addition and measured after 30 mins by fluorogenic assay
Histone deacetylase 4, sequence (P56524 whole entry): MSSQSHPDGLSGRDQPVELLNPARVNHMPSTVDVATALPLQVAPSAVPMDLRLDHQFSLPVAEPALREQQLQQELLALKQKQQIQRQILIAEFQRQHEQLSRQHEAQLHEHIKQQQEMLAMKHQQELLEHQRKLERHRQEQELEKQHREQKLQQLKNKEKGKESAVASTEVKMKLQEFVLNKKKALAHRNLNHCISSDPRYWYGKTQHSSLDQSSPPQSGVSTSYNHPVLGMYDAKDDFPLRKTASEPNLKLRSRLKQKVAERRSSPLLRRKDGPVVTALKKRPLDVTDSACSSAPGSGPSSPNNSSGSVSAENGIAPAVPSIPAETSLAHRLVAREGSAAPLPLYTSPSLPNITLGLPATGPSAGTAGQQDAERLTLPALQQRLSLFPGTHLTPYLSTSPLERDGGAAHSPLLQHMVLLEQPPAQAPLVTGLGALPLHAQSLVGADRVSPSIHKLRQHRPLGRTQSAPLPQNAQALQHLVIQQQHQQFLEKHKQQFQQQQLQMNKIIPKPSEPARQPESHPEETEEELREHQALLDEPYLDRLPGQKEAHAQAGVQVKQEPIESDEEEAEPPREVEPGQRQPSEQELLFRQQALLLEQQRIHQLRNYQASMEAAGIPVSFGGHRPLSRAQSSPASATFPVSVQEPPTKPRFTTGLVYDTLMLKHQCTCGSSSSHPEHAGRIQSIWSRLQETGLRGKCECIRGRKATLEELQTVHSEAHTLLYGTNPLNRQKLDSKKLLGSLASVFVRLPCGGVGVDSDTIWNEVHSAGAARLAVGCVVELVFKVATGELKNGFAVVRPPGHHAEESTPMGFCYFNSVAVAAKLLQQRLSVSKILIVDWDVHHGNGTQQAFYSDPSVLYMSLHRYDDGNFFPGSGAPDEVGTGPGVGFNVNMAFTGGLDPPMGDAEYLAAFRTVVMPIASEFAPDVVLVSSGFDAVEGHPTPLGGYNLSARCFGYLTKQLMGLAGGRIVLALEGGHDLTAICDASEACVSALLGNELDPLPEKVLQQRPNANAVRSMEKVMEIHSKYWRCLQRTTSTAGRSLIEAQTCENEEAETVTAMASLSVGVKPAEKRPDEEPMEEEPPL

Homo sapiens [2] = species on record: Homo sapiens; assay: Selectivity ratio of IC50 for inhibition of human HDAC1 expressed in human HEK-293T cells using fluorescent peptide RHKKAc as substrate to IC50 for inhibition of mouse HDAC6 expressed in human HEK-293T cells using fluorescent peptide Ac-KGLGK(Ac)-MCA as substrate; assay type: cell-based
Homo sapiens [3] = species on record: Homo sapiens; assay: Selectivity ratio of IC50 for inhibition of human HDAC4 using fluorescent peptide Boc-Lys(trifluoroacetyl)-AMC as substrate to IC50 for inhibition of mouse HDAC6 expressed in human HEK-293T cells using fluorescent peptide Ac-KGLGK(Ac)-MCA as substrate
[4] = molecular target: Voltage-gated inwardly rectifying potassium channel KCNH2 (Homo sapiens, UniProt Q12809); assay: Inhibition of human ERG potassium channel by fluorescence polarization assay; assay type: toxicity
Voltage-gated inwardly rectifying potassium channel KCNH2, sequence (Q12809 whole entry): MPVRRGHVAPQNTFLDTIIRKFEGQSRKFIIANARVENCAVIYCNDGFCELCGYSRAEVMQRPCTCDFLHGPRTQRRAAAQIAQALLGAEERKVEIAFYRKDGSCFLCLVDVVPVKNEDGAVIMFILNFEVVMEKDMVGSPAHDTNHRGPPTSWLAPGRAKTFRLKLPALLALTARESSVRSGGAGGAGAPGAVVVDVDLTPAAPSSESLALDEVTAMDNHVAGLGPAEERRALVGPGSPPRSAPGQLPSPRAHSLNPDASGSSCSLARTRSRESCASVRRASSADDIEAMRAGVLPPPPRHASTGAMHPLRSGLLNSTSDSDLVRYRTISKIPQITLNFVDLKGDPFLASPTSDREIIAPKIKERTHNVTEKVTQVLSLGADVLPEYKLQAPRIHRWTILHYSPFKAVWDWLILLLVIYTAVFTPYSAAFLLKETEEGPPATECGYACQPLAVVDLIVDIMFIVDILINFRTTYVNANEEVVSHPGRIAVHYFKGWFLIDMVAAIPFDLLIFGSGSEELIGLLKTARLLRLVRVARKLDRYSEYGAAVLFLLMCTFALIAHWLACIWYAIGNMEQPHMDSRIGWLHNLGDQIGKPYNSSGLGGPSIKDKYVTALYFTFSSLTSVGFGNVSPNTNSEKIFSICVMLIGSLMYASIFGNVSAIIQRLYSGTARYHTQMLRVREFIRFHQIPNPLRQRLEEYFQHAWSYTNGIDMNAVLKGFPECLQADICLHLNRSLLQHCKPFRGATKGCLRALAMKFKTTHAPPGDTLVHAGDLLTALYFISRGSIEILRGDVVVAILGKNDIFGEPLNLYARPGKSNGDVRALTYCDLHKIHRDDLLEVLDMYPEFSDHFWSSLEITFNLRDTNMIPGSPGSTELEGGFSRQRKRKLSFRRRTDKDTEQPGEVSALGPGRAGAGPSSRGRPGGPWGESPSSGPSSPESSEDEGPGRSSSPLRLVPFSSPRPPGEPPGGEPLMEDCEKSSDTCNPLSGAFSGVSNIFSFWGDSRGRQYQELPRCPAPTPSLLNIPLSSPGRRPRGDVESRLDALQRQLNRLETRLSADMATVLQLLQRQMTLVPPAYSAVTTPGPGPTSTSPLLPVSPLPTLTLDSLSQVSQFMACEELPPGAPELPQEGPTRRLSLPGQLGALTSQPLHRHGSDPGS

[5] = Lipophilicity, logD of compound at pH 7.4 measured after 20 mins by UPLC analysis; assay type: physicochemical; details: buffer
[6] = Apparent permeability in human Caco-2 cells incubated for 2 hrs by LC-MS/MS analysis; assay type: ADME, cell-based
[7] = Metabolic stability in mouse liver microsomes assessed as parent compound remaining at 500 uM measured at 60 mins by LC-MS/MS analysis; assay type: ADME, Microsome; details: read-out: Stability
[8] = Metabolic stability in human liver microsomes assessed as parent compound remaining at 500 uM measured at 60 mins by LC-MS/MS analysis; assay type: ADME, Microsome; details: read-out: Stability
[9] = Brain to plasma ratio in C57BL/6J mouse at 10 mg/kg, iv measured after 45 mins by LC-MS/MS analysis; assay type: ADME, organism-based; details: brain and plasma, read-out: BPR
Mus musculus [10] = assay: Antidepressant activity in restraint-stressed C57BL/6J mouse model assessed as reduction in immobility time at 10 mg/kg, ip measured at 14 mins relative to control (Rvb= 569.6 +/- 27.6 sec); assay type: functional
Mus musculus [11] = assay: Antidepressant activity in restraint-stressed C57BL/6J mouse model assessed as increase in acetylated alpha tubulin level in brain at 10 mg/kg, ip measured after 15 mins; assay type: functional, organism-based
Mus musculus [12] = assay: Antidepressant activity in restraint-stressed C57BL/6J mouse model assessed as reduction in immobility time at 20 mg/kg, ip measured at 14 mins relative to control (Rvb= 569.6 +/- 27.6 sec); assay type: functional

SMILES	IC50 [1] [µM]	IC50 (Histone deacetylase 1) [µM]	IC50 (Histone deacetylase 4) [µM]	Ratio IC50 (Homo sapiens [2])	Ratio IC50 (Homo sapiens [3])	IC50 [4] [µM]	logD at 20 min [5]	Papp at 2 h [6] [×10⁻⁶ cm/s]	remaining at 1 h, 500 µM [7] [%]	remaining at 1 h [8] [%]	Kp at 0.75 h [9]	Time (Mus musculus [10]) [s]	Activity (Mus musculus [11])	Time (Mus musculus [12]) [s]
CC(c1ccccc1)N1CCN(Cc2ccc(C(=O)NO)cc2)CC1 (stereo not given)	0.26	6.7	12.3	26	47	106	2.1	10.9	67	63	6.73	453	Active	–
O=C(NO)c1ccc(CCCCN2CCN(C(c3ccccc3)c3ccccc3)CC2)cc1	0.43	5.5	5	13	12	–	–	–	–	–	–	–	–	–
O=C(NO)c1ccc(CN2CCN(C(c3ccccc3)c3ccccc3)CC2)cc1	0.11	4.4	4.4	40	40	0.66	3.8	17.1	1	62	7.91	410.7	–	–
O=C(NO)c1ccc(CCN2CCN(C(c3ccccc3)c3ccccc3)CC2)cc1	0.33	4.8	3	15	9	–	–	–	–	–	–	–	–	–
O=C(NO)c1ccc(CCCN2CCN(C(c3ccccc3)c3ccccc3)CC2)cc1	0.58	3.8	1.9	7	3	–	–	–	–	–	–	–	–	–
O=C(NO)c1ccc(CN2CCN(Cc3ccccc3)CC2)cc1	0.26	10.4	9.2	40	35	73.1	1.9	11.6	80	73	4.37	507.3	–	–
O=C(NO)c1cccc(CN2CCN(C(c3ccccc3)c3ccccc3)CC2)c1	6.6	46.6	> 100	7	–	–	–	–	–	–	–	–	–	–
CNCCC(Oc1ccc(C(F)(F)F)cc1)c1ccccc1 (stereo not given) [FLUOXETINE]	–	–	–	–	–	–	–	–	–	–	–	–	–	405.5
O=C(NO)c1ccccc1CN1CCN(C(c2ccccc2)c2ccccc2)CC1	> 100	> 100	> 100	–	–	–	–	–	–	–	–	–	–	–
